Experimental data from patent US6337346B1 (University of North Carolina at Chapel Hill, priority 1998, dated 2002).
≈ marks a conversion by molar mass, not a printed value. Like-named read-outs stand apart in the source and are kept apart here.

Columns and labels:
KB = test: Preliminary cytotoxicity testing of 6 and 16 (Table 1); assay type: cell-based; details: Homo sapiens, Table 1, preliminary testing
HCT-8 = test: as above; assay type: cell-based; details: Homo sapiens, Table 1, preliminary testing
A549 = test: as above; assay type: cell-based; details: Homo sapiens, Table 1, preliminary testing
CAKI-1 = test: as above; assay type: cell-based; details: Homo sapiens, Table 1, preliminary testing
SK-MEL-2 [1] = test: as above; assay type: cell-based; details: Homo sapiens, Table 1, preliminary testing
MCF-7 = test: as above; assay type: cell-based; details: Homo sapiens, MCF7, Table 1, preliminary testing
[2] = test system: several leukemia cell lines; test: Preliminary cytotoxicity testing, summary in words; assay type: cell-based
P-399 = test: Preliminary cytotoxicity testing of 6 and 16 (Table 1); assay type: cell-based; details: Table 1, preliminary testing
L-1210 = test: as above; assay type: cell-based; details: Mus musculus, L1210, Table 1, preliminary testing
LOX IMVI = test: NCI in vitro disease-oriented tumor cells screen; assay type: cell-based, human; details: Homo sapiens, Melanoma LOX IMVI, average of at least two testings, read-out: Cytotoxicity log GI50 (converted)
Excerpt: (§1) (Activity is defined as log GI50<−4 where GI50 is the molar concentration causing 50% cell growth inhibition).

SK-MEL-5 = test: NCI in vitro disease-oriented tumor cells screen; assay type: cell-based, human; details: Homo sapiens, Melanoma SK-MEL-5, average of at least two testings, read-out: Cytotoxicity log GI50 (converted)
Excerpt: as §1

NCI-H23 = test: NCI in vitro disease-oriented tumor cells screen; assay type: cell-based, human; details: Homo sapiens, Non-Small Cell Lung Cancer NCI-H23, average of at least two testings, read-out: Cytotoxicity log GI50 (converted)
Excerpt: as §1

OVCAR-3 = test: NCI in vitro disease-oriented tumor cells screen; assay type: cell-based, human; details: Homo sapiens, Ovarian Cancer OVCAR-3, average of at least two testings, read-out: Cytotoxicity log GI50 (converted)
Excerpt: as §1

MDA-MB-435 = test: NCI in vitro disease-oriented tumor cells screen; assay type: cell-based, human; details: Homo sapiens, Breast Cancer MDA-MB-435, average of at least two testings, read-out: Cytotoxicity log GI50 (converted)
Excerpt: as §1

MDA-N = test: NCI in vitro disease-oriented tumor cells screen; assay type: cell-based, human; details: Homo sapiens, Breast Cancer MDA-N, average of at least two testings, read-out: Cytotoxicity log GI50 (converted)
Excerpt: as §1

CCRF-CEM = test: NCI in vitro human tumor cell line assay; assay type: cell-based; details: Leukemia CCRF-CEM, Table 3 (numbering of Examples 14-16), average of at least two testings, read-out: Cytotoxicity log GI50 (converted)
NCI-H460 = test: NCI in vitro human tumor cell line assay; assay type: cell-based; details: Non-Small Cell Lung Cancer NCI-H460, Table 3 (numbering of Examples 14-16), average of at least two testings, read-out: Cytotoxicity log GI50 (converted)
NCI-H552 = test: NCI in vitro human tumor cell line assay; assay type: cell-based; details: Non-Small Cell Lung Cancer NCI-H552, Table 3 (numbering of Examples 14-16), average of at least two testings, read-out: Cytotoxicity log GI50 (converted)
HCT-15 = test: NCI in vitro human tumor cell line assay; assay type: cell-based; details: Colon Cancer HCT-15, Table 3 (numbering of Examples 14-16), average of at least two testings, read-out: Cytotoxicity log GI50 (converted)
SW-620 = test: NCI in vitro human tumor cell line assay; assay type: cell-based; details: Colon Cancer SW-620, Table 3 (numbering of Examples 14-16), average of at least two testings, read-out: Cytotoxicity log GI50 (converted)
SF-539 = test: NCI in vitro human tumor cell line assay; assay type: cell-based; details: CNS Cancer SF-539, Table 3 (numbering of Examples 14-16), average of at least two testings, read-out: Cytotoxicity log GI50 (converted)
SNB-19 = test: NCI in vitro human tumor cell line assay; assay type: cell-based; details: CNS Cancer SNB-19, Table 3 (numbering of Examples 14-16), average of at least two testings, read-out: Cytotoxicity log GI50 (converted)
IGROV1 = test: NCI in vitro human tumor cell line assay; assay type: cell-based; details: IGROV-1, Ovarian Cancer IGROV1, Table 3 (numbering of Examples 14-16), average of at least two testings, read-out: Cytotoxicity log GI50 (converted)
MCF 7 = test: NCI in vitro human tumor cell line assay; assay type: cell-based; details: MCF7, Breast Cancer MCF 7, Table 3 (numbering of Examples 14-16), average of at least two testings, read-out: Cytotoxicity log GI50 (converted)
MCF 7/ADR-RES = test: NCI in vitro human tumor cell line assay; assay type: cell-based; details: MCF7, Breast Cancer MCF 7/ADR-RES, Table 3 (numbering of Examples 14-16), average of at least two testings, read-out: Cytotoxicity log GI50 (converted)
KB cells = test: Preliminary KB cell assay (cytotoxicity); assay type: cell-based; details: Homo sapiens, numbering of Examples 14-16, read-out: ED50 (the source's name)
Protocol: Many anthraquinones, including mitoxantrone (1), show antineoplastic activity (Zee-Cheng, R. Y.; Podrebarac, E. G; Menon, C. S.; Cheng, C. C. J. Med. Chem. 1979, 22, 501-505). In addition, the natural product 2-acetyl-4H, 9H-naphtho[2,3-b]furan-4,9-dione (2) isolated from Tabebuia cassinoids (Lam.) DC.
The unsubstituted (3), two mono-acetyl (5, 6), and two di-acetyl (9, 10) derivatives were tested for cytotoxicity in a preliminary KB cell assay.

MOLT-4 [3] = details: human
MOLT-4 [4] = test: NCI in vitro human tumor cell line assay; details: MOLT-4, read-out: Cytotoxicity log GI50 (converted)
human tumor cell lines [5] = test: NCI in vitro screen, mean over all cell lines tested; details: Homo sapiens, read-out: Cytotoxicity log GI50, Mean Value (converted)
Excerpt: as §1

MALME-3M = test: NCI in vitro disease-oriented tumor cells screen; assay type: cell-based, human; details: Homo sapiens; Melanoma MALME-3M; Table 2; average of at least two testings; read-out: Cytotoxicity log GI50 (converted)
Excerpt: as §1

M14 = test: NCI in vitro disease-oriented tumor cells screen; assay type: cell-based, human; details: Homo sapiens; Melanoma M14; Table 2; average of at least two testings; read-out: Cytotoxicity log GI50 (converted)
Excerpt: as §1

SK-MEL-2 [6] = test: NCI in vitro disease-oriented tumor cells screen; assay type: cell-based, human; details: Homo sapiens; Melanoma SK-MEL-2; Table 2; average of at least two testings; read-out: Cytotoxicity log GI50 (converted)
Excerpt: as §1

SK-MEL-28 = test: NCI in vitro disease-oriented tumor cells screen; assay type: cell-based, human; details: Homo sapiens; Melanoma SK-MEL-28; Table 2; average of at least two testings; read-out: Cytotoxicity log GI50 (converted)
Excerpt: as §1

UACC-257 = test: NCI in vitro disease-oriented tumor cells screen; assay type: cell-based, human; details: Homo sapiens; Melanoma UACC-257; Table 2; average of at least two testings; read-out: Cytotoxicity log GI50 (converted)
Excerpt: as §1

UACC-62 = test: NCI in vitro disease-oriented tumor cells screen; assay type: cell-based, human; details: Homo sapiens; Melanoma UACC-62; Table 2; average of at least two testings; read-out: Cytotoxicity log GI50 (converted)
Excerpt: as §1

HL-60(TB) = test: NCI in vitro disease-oriented tumor cells screen; assay type: cell-based, human; details: Homo sapiens; Leukemia HL-60(TB); Table 2; average of at least two testings; read-out: Cytotoxicity log GI50 (converted)
Excerpt: as §1

OVCAR-8 = test: NCI in vitro disease-oriented tumor cells screen; assay type: cell-based, human; details: Homo sapiens; Ovarian Cancer OVCAR-8; Table 2; average of at least two testings; read-out: Cytotoxicity log GI50 (converted)
Excerpt: as §1

HS 578T = test: NCI in vitro disease-oriented tumor cells screen; assay type: cell-based, human; details: Homo sapiens; Breast Cancer HS 578T; Table 2; average of at least two testings; read-out: Cytotoxicity log GI50 (converted)
Excerpt: as §1

BT-549 = test: NCI in vitro disease-oriented tumor cells screen; assay type: cell-based, human; details: Homo sapiens; Breast Cancer BT-549; Table 2; average of at least two testings; read-out: Cytotoxicity log GI50 (converted)
Excerpt: as §1

melanoma cell lines = test: NCI in vitro screen, melanoma cell lines as a group; assay type: cell-based, human; details: numbering of Examples 1-13
Excerpt: as §1

human tumor cell lines [7] = test system: human tumor cell lines
Excerpt: as §1

[8] = Table 3 (numbering of Examples 14-16)
[9] = Table 2 (numbering of Examples 1-13)

Structure (SMILES): O=C1c2ccsc2C(=O)c2sccc21 [Compound 16]
- IC50 (KB): 0.05 µg/mL (≈ 0.227 µM)
- IC50 (HCT-8): 0.032 µg/mL (≈ 0.145 µM)
- IC50 (A549): 0.032 µg/mL (≈ 0.145 µM)
- IC50 (CAKI-1): 0.11 µg/mL (≈ 0.499 µM)
- IC50 (SK-MEL-2 [1]): 0.06 µg/mL (≈ 0.272 µM)
- IC50 (MCF-7): < 0.016 µg/mL
- activity against several leukemia cell lines (in words) [2]: significant activity

Structure (SMILES): CC(=O)c1csc2c1C(=O)c1ccccc1C2=O [Compound 6, 3-Acetyl-naphtho[2,3-b]thiophene-4,9-dione]
- IC50 (KB): 0.058 µg/mL (≈ 0.226 µM)
- IC50 (HCT-8): 0.06 µg/mL (≈ 0.234 µM)
- IC50 (P-399): < 0.1 µg/mL
- IC50 (L-1210): 0.32 µg/mL (≈ 1.25 µM)
- IC50 (A549): 0.048 µg/mL (≈ 0.187 µM)
- IC50 (CAKI-1): 0.28 µg/mL (≈ 1.09 µM)
- IC50 (MCF-7): 0.09 µg/mL (≈ 0.351 µM)
- activity against several leukemia cell lines (in words) [2]: significant activity
- GI50 (LOX IMVI; [8]): 2340 nM
- GI50 (SK-MEL-5; [8]): 170 nM
- GI50 (NCI-H23; [8]): 1050 nM
- GI50 (OVCAR-3; [8]): 3550 nM
- GI50 (MDA-MB-435; [8]): 324 nM
- GI50 (MDA-N; [8]): 933 nM
- GI50 (CCRF-CEM): 1550 nM
- GI50 (NCI-H460): 1320 nM
- GI50 (NCI-H552): 1740 nM
- GI50 (HCT-15): 17400 nM
- GI50 (SW-620): 2190 nM
- GI50 (SF-539): 2040 nM
- GI50 (SNB-19): 1780 nM
- GI50 (IGROV1): 2450 nM
- GI50 (MCF 7): 2090 nM
- GI50 (MCF 7/ADR-RES): 2880 nM
- EC50 (KB cells): 5000 nM
- melting point: 244 to 245 °C
- Cytotoxicity log GI50 (MOLT-4 [3]): <−8.00 M
- GI50 (MOLT-4 [4]): < 10 nM
- GI50 (human tumor cell lines [5]): 2140 nM

Structure (SMILES): CC(=O)OC(C)c1cc2c(s1)C(=O)c1c(C(C)OC(C)=O)csc1C2=O (centres unmarked) [Compound 15, 2,7-Bis(1′-acetoxyethyl)-4,8-dihydrobenzo[1,2-b:4,5-b′]dithiophene-4,8-dione]
- GI50 (LOX IMVI; [9]): 1580 nM
- GI50 (MALME-3M): 186 nM
- GI50 (M14): 513 nM
- GI50 (SK-MEL-2 [6]): 1550 nM
- GI50 (SK-MEL-28): 1660 nM
- GI50 (SK-MEL-5; [9]): 631 nM
- GI50 (UACC-257): 631 nM
- GI50 (UACC-62): 1100 nM
- GI50 (HL-60(TB)): 67.6 nM
- GI50 (NCI-H23; [9]): 871 nM
- GI50 (OVCAR-3; [9]): 275 nM
- GI50 (OVCAR-8): 457 nM
- GI50 (HS 578T): 2090 nM
- GI50 (MDA-MB-435; [9]): 186 nM
- GI50 (MDA-N; [9]): 214 nM
- GI50 (BT-549): 2140 nM
- potency / selectivity towards melanoma cell lines (in words) (melanoma cell lines): not selective towards melanoma cell lines
- melting point: 180 to 182 °C
- overall cytotoxicity / potency (in words) (human tumor cell lines [7]): less active in all cell lines
- GI50 (human tumor cell lines [5]): 1200 nM
